Laboratory results taken from ChEMBL document CHEMBL1157967, “Triterpenoid saponins from the fruits of Caryocar villosum” (J Nat Prod, 2006).
The source made the active and inactive calls.

Legend:
Format in all cases: functional, organism-based
[1] = system: Staphylococcus aureus; assay: Antibacterial activity against Staphylococcus aureus at 50 ug by agar diffusion method
[2] = system: Mycolicibacterium smegmatis; assay: Antibacterial activity against Mycobacterium smegmatis at 50 ug by agar diffusion method
[3] = system: Enterococcus faecalis; assay: Antibacterial activity against Enterococcus faecalis at 50 ug by agar diffusion method
[4] = system: Escherichia coli; assay: Antibacterial activity against Escherichia coli at 50 ug by agar diffusion method
[5] = system: Pseudomonas aeruginosa; assay: Antibacterial activity against Pseudomonas aeruginosa at 50 ug by agar diffusion method

Measured: Activity

CC1(C)CC[C@]2(C(=O)O)CC[C@]3(C)C(=CC[C@@H]4[C@@]5(C)C[C@H](O)[C@H](O[C@@H]6O[C@H](CO)[C@@H](O)[C@H](O[C@@H]7O[C@H](CO)[C@H](O)[C@H](O)[C@H]7O)[C@H]6O)[C@@](C)(CO)[C@@H]5CC[C@]43C)[C@@H]2C1
inactive: all assays above

CC1(C)CC[C@]2(C(=O)O[C@@H]3O[C@H](CO)[C@@H](O)[C@H](O)[C@H]3O)CC[C@]3(C)C(=CC[C@@H]4[C@@]5(C)C[C@H](O)[C@H](O[C@@H]6O[C@H](C(=O)O)[C@@H](O)[C@H](O[C@@H]7O[C@H](CO)[C@H](O[C@@H]8O[C@H](CO)[C@H](O)[C@H](O[C@@H]9O[C@H](CO)[C@H](O)[C@H](O[C@@H]%10OC[C@@H](O)[C@H](O)[C@H]%10O)[C@H]9O)[C@H]8O)[C@H](O)[C@H]7O)[C@H]6O)C(C)(C)[C@@H]5CC[C@]43C)[C@@H]2C1
inactive: all assays above

CC1(C)CC[C@]2(C(=O)O[C@@H]3O[C@H](CO)[C@@H](O)[C@H](O)[C@H]3O)CC[C@]3(C)C(=CC[C@@H]4[C@@]5(C)C[C@H](O)[C@H](O[C@@H]6O[C@H](C(=O)O)[C@@H](O)[C@H](O[C@@H]7O[C@H](CO)[C@H](O)[C@H](O)[C@H]7O)[C@H]6O)C(C)(C)[C@@H]5CC[C@]43C)[C@@H]2C1
inactive: all assays above

CC1(C)CC[C@]2(C(=O)O)CC[C@]3(C)C(=CC[C@@H]4[C@@]5(C)CC[C@H](O[C@@H]6O[C@H](CO)[C@@H](O)[C@H](O[C@@H]7O[C@H](CO)[C@H](O)[C@H](O)[C@H]7O)[C@H]6O)[C@@](C)(CO)[C@@H]5CC[C@]43C)[C@@H]2C1
inactive: all assays above

CC1(C)CC[C@]2(C(=O)O[C@@H]3O[C@H](CO)[C@@H](O)[C@H](O)[C@H]3O)CC[C@]3(C)C(=CC[C@@H]4[C@@]5(C)CC[C@H](O[C@@H]6O[C@H](CO)[C@H](O)[C@H](O)[C@H]6O[C@@H]6O[C@H](CO)[C@@H](O)[C@H](O)[C@H]6O)[C@@](C)(CO)[C@@H]5CC[C@]43C)[C@@H]2C1
inactive: all assays above
